Results reported in PubChem BioAssay AID2060338 (Molecular Pharmacology Branch, DTP, NCI, 2025).

Tested on: 556581-035-R-J1-PDC spheroids with HUVEC/MSC, viability
Assay: Anticancer human tumor 556581-035-R-J1-PDC patient-derived ovarian carcinoma cell line growth inhibition [IpAb]
Settings: for IC50: curve of first compound; for viability, T/C: stronger effect = lower value
Text: Combinatorial screen of targeted agents with ipatasertib and abemaciclib in multi-cell type tumor spheroids
A high-throughput screen of multi-cell type tumor spheroids was designed to identify active combinations of targeted small molecules and ipatasertib or abemaciclib. Complex spheroids include a stromal component modeled by human endothelial cells (HUVEC) and fibroblasts modeled by human mesenchymal stem cells (MSCs). The concentration ranges selected for each drug and investigational agent were based upon clinically achievable concentrations if the clinical Cmax of the agent was known.
Compounds. The drugs and investigational agents: ipatasertib (NSC767898), abemaciclib(NSC768073), selumetinib (NSC741078), trametinib (758246), adavosertib (NSC754352), everolimus (NSC733504), sapanisertib (NSC764658), vemurafenib (NSC761431), venetoclax (NSC766270), copanlisib (NSC809693), apelisib (NSC765974), palbociblib (NSC758247), vemurafenib (NSC761431), dabrafenib (NSC764134), ravoxertinib (NSC781343), BMS-387032 (NSC767048), sotorasib (NSC818433), talazoparib (NSC767125) and afursertib (NSC778305), were obtained from the National Cancer Institute (NCI) Developmental Therapeutics Program Chemical Repository. The FDA-approved anticancer drug set is available from the NCI Developmental Therapeutics Program. […] The stock solutions were prepared in dimethyl sulfoxide (DMSO, Sigma-Aldrich, St. Louis, MO, cat. D2650) at 800-fold the tested concentration and stored at -70 degrees C prior to their use. All drugs and investigational agents were tested over a range starting from a high concentration at or near the clinical Cmax and decreasing in half-log increments. If the clinical Cmax for an agent had not been determined, the highest concentration tested was 10 microM.
NCI60 Cell Culture. NCI60 cell lines were obtained from the NCI Developmental Therapeutics Program Tumor Repository. For each lot of cells, the Repository performed Applied Biosystems AmpFLSTR Identifiler testing with PCR amplification to confirm consistency with the published Identifier STR profile for each cell line. Cells were kept in continuous culture for no more than 20 passages. The optimal seeding densities for each of the cell lines at each time point assessed were determined prior to performing the concentration response studies. Briefly, the NCI60 human tumor lines were grown as monolayers in RPMI 1640 medium supplemented with 10% FBS and 2 mmol/L L-glutamine.
An additional 9 lines were from the NCI60 cell line panel including MDA-MB-231 breast carcinoma, MDA-MB-468 breast carcinoma, MCF7 breast carcinoma, Hs578T breast carcinoma, MALME-3M melanoma, SK-MEL-2 melanoma, SK-OV-3 ovarian carcinoma, DU-145 prostate carcinoma, PC-3 prostate carcinoma, all cell lines along with major genetic alterations are listed on Table 2. Pooled donor human umbilical vein endothelial cells (HUVEC, Lonza, cat. CC-2519) and human mesenchymal stem cells (hMSC, Lonza, cat. PT-2501) were purchased from Lonza (Walkersville, MD).
PDMR cell lines were grown in complete medium (DC medium): Dulbecco's modified Eagle's medium (DMEM)/F12 supplemented with 5% fetal bovine serum (FBS), 2 mM L-glutamine, 100 U/mL penicillin and 100 µg/ml streptomycin, 0.4 µg/ml hydrocortisone, 10 ng/ml epidermal growth factor (EGF) recombinant human protein, 24 µg/mL adenine, and 0.1 mg/mL primocin. During culture from frozen stock vials, PDMR cells were cultured in the same medium containing 10 µM Y-27632 (see Table 3). The PDCs were cultured in complete DMEM/F12 media without 10 microM Y-27632 dihydrochloride for at least two passages prior to the screen. The pooled donor HUVEC and hMSC were cultured in endothelial cell growth medium 2 (PromoCell, Heidelberg, Germany, cat. C-22011) and mesenchymal stem cell growth medium 2 (PromoCell, cat. C-28009), respectively. For all experiments, HUVEC and hMSC were used at passages </=5.
[…]
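Note: spheroids exposed to compounds for 7 days before readout.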

CC(=O)c1c(C)c2cnc(Nc3ccc(N4CCNCC4)cn3)nc2n(C2CCCC2)c1=O + CC(C)NCC(C(=O)N1CCN(c2ncnc3c2C(C)CC3O)CC1)c1ccc(Cl)cc1
IC50 (second compound 0.1 µM): > 300 nM | IC50 (second compound 0.316 µM): > 300 nM | IC50 (second compound 1 µM): > 300 nM | IC50 (second compound 3.16 µM): > 300 nM | IC50 (second compound 10 µM): < 0.949 nM | viability, T/C (second compound 0.1 µM, first compound 0.000949 µM): 98.2% | viability, T/C (second compound 0.1 µM, first compound 0.003 µM): 115% | viability, T/C (second compound 0.1 µM, first compound 0.00949 µM): 95.5% | viability, T/C (second compound 0.1 µM, first compound 0.03 µM): 96% | viability, T/C (second compound 0.1 µM, first compound 0.0949 µM): 99% | viability, T/C (second compound 0.1 µM, first compound 0.3 µM): 87.2% | viability, T/C (second compound 0.316 µM, first compound 0.000949 µM): 77.8% | viability, T/C (second compound 0.316 µM, first compound 0.003 µM): 90.4% | viability, T/C (second compound 0.316 µM, first compound 0.00949 µM): 85.9% | viability, T/C (second compound 0.316 µM, first compound 0.03 µM): 76% | viability, T/C (second compound 0.316 µM, first compound 0.0949 µM): 85.3% | viability, T/C (second compound 0.316 µM, first compound 0.3 µM): 82.4% | viability, T/C (second compound 1 µM, first compound 0.000949 µM): 59.9% | viability, T/C (second compound 1 µM, first compound 0.003 µM): 65.7% | viability, T/C (second compound 1 µM, first compound 0.00949 µM): 68.1% | viability, T/C (second compound 1 µM, first compound 0.03 µM): 56.4% | viability, T/C (second compound 1 µM, first compound 0.0949 µM): 65.3% | viability, T/C (second compound 1 µM, first compound 0.3 µM): 63.5% | viability, T/C (second compound 3.16 µM, first compound 0.000949 µM): 57.8% | viability, T/C (second compound 3.16 µM, first compound 0.003 µM): 61.7% | viability, T/C (second compound 3.16 µM, first compound 0.00949 µM): 49.9% | viability, T/C (second compound 3.16 µM, first compound 0.03 µM): 55.4% | viability, T/C (second compound 3.16 µM, first compound 0.0949 µM): 58.1% | viability, T/C (second compound 3.16 µM, first compound 0.3 µM): 58% | viability, T/C (second compound 10 µM, first compound 0.000949 µM): 47.9% | viability, T/C (second compound 10 µM, first compound 0.003 µM): 47.4% | viability, T/C (second compound 10 µM, first compound 0.00949 µM): 48.6% | viability, T/C (second compound 10 µM, first compound 0.03 µM): 49.6% | viability, T/C (second compound 10 µM, first compound 0.0949 µM): 45.8% | viability, T/C (second compound 10 µM, first compound 0.3 µM): 48.4%
